Laboratory results from ChEMBL document CHEMBL3301546, “MMV Malaria Box yeast growth screening”.

What was measured:
Assay type in all cases: functional
Saccharomyces cerevisiae [1] = assay: (§1) MMV: Growth assays were conducted using the prototrophic S. cerevisiae strain JHY222. Each MMV compound (0.1 mM) was tested in rich media containing dextrose as a carbon source (Yeast Extract, Peptone, Dextrose; YPD). The growth rate in the presence of each MMV compound was calculated as follows: (i) the first 10 OD readings were averaged and subtracted from all OD readings of the corresponding curve to set the baseline of the growth curve to zero, and (ii) the area under the curve (AUC) was then calculated as the sum of all OD readings. […] A relative growth value was calculated as follows: AUC(DRUG) - AUC(DMSO)/AUC(DMSO); where AUC(DMSO) represents growth measured in a DMSO control well that was on the same microtiter plate of the drug-treated culture.
Saccharomyces cerevisiae [2] = assay: as §1, with “minimal” for “rich”, “Nitrogen Base,” for “Extract, Peptone,”, “YNBD).” for “YPD).”
Saccharomyces cerevisiae [3] = assay: as §1, with “minimal” for “rich”, “ethanol and glycerol” for “dextrose”, “as” for “as a”, “sources” for “source”, “Nitrogen Base, Ethanol, Glycerol; YNBEG).” for “Extract, Peptone, Dextrose; YPD).”

COc1ccc(-c2cc3c(nn2)-c2ccccc2C3=O)cc1
Relative Growth (Saccharomyces cerevisiae [1]): 0.0333
Relative Growth (Saccharomyces cerevisiae [2]): -0.3119
Relative Growth (Saccharomyces cerevisiae [3]): -0.8829

O=C1c2ccccc2-c2nnc(-c3ccc(Br)cc3)cc21
Relative Growth (Saccharomyces cerevisiae [1]): -0.0452
Relative Growth (Saccharomyces cerevisiae [2]): 0.0312
Relative Growth (Saccharomyces cerevisiae [3]): 0.1282

Cc1nc2ccccc2c(O)c1CC=C(Cl)Cl
Relative Growth (Saccharomyces cerevisiae [1]): -0.1226
Relative Growth (Saccharomyces cerevisiae [2]): -0.0687
Relative Growth (Saccharomyces cerevisiae [3]): -1.0138

COc1cccc(Nc2nc(N)c3ccccc3n2)c1.Cl
Relative Growth (Saccharomyces cerevisiae [1]): 0.0358
Relative Growth (Saccharomyces cerevisiae [2]): 0.0154
Relative Growth (Saccharomyces cerevisiae [3]): -0.036

CC(=O)c1ccc(NC(=O)CSc2nc(-c3ccccc3Cl)ns2)cc1
Relative Growth (Saccharomyces cerevisiae [1]): -0.0294
Relative Growth (Saccharomyces cerevisiae [2]): 0.0088
Relative Growth (Saccharomyces cerevisiae [3]): 0.0011

Cl.c1ccc2c(NCCCCCCNc3c4c(nc5ccccc35)CCCC4)c3c(nc2c1)CCCC3
Relative Growth (Saccharomyces cerevisiae [1]): -0.0331
Relative Growth (Saccharomyces cerevisiae [2]): -0.2454
Relative Growth (Saccharomyces cerevisiae [3]): -0.2596

Brc1ccc(Nc2nc3ccccc3nc2Nc2ccc(Br)cc2)cc1
Relative Growth (Saccharomyces cerevisiae [1]): -0.9981
Relative Growth (Saccharomyces cerevisiae [2]): -0.0577
Relative Growth (Saccharomyces cerevisiae [3]): -0.5592

O=C(NCCCN1CCC(N2CCCCC2)CC1)C1=Cc2cc(Br)ccc2OC1
Relative Growth (Saccharomyces cerevisiae [1]): -0.0702
Relative Growth (Saccharomyces cerevisiae [2]): -0.0044
Relative Growth (Saccharomyces cerevisiae [3]): -0.1063

Cc1ccnc(NC(c2cccc(OCc3ccccc3)c2)c2ccc3cccnc3c2O)c1 (stereo not given)
Relative Growth (Saccharomyces cerevisiae [1]): 0
Relative Growth (Saccharomyces cerevisiae [2]): 0.0892
Relative Growth (Saccharomyces cerevisiae [3]): -0.3469

COc1ccc(CCn2c(=N)c(C(=O)NCc3cccnc3)cc3c(=O)n4cccc(C)c4nc32)cc1
Relative Growth (Saccharomyces cerevisiae [1]): 0.0999
Relative Growth (Saccharomyces cerevisiae [2]): 0.0391
Relative Growth (Saccharomyces cerevisiae [3]): -0.1242

Nc1ccc(-c2nc3cc(Cc4ccc5[nH]c(-c6ccc(N)cc6)nc5c4)ccc3[nH]2)cc1
Relative Growth (Saccharomyces cerevisiae [1]): -0.9832
Relative Growth (Saccharomyces cerevisiae [2]): -0.0312
Relative Growth (Saccharomyces cerevisiae [3]): -0.1364

CCCCOC(=O)c1ccc(Nc2cc(C)nc3ccc(OC)cc23)cc1
Relative Growth (Saccharomyces cerevisiae [1]): -0.1158
Relative Growth (Saccharomyces cerevisiae [2]): -0.0919
Relative Growth (Saccharomyces cerevisiae [3]): -0.3112

Cc1cc(Nc2ccc(OCc3ccccc3)cc2)nc2cc(O)ccc12
Relative Growth (Saccharomyces cerevisiae [1]): 0.0868
Relative Growth (Saccharomyces cerevisiae [2]): -0.1895
Relative Growth (Saccharomyces cerevisiae [3]): 0.3239

COc1ccc(Nc2cc(C)nc(NCc3ccccc3)n2)cc1
Relative Growth (Saccharomyces cerevisiae [1]): 0.0201
Relative Growth (Saccharomyces cerevisiae [2]): 0.0189
Relative Growth (Saccharomyces cerevisiae [3]): 0.0325

COc1cc(-c2nc(-c3ccc(Sc4ccccc4)cc3)c(-c3ccccc3)[nH]2)cc(OC)c1O
Relative Growth (Saccharomyces cerevisiae [1]): -0.0314
Relative Growth (Saccharomyces cerevisiae [2]): -0.0129
Relative Growth (Saccharomyces cerevisiae [3]): -0.2127

Cc1ccc(OCCCCCCNCCO)c(C)c1
Relative Growth (Saccharomyces cerevisiae [1]): -0.034
Relative Growth (Saccharomyces cerevisiae [2]): 0.026
Relative Growth (Saccharomyces cerevisiae [3]): -0.0581

OC(Cn1nnc2ccccc21)Cn1c2ccc(Br)cc2c2cc(Br)ccc21 (stereo not given)
Relative Growth (Saccharomyces cerevisiae [1]): 0.0859
Relative Growth (Saccharomyces cerevisiae [2]): 0.0887
Relative Growth (Saccharomyces cerevisiae [3]): 0.1229

CCOc1ccc(-n2cc(-c3ccccc3)c3c(SCc4cc(C)ccc4C)ncnc32)cc1
Relative Growth (Saccharomyces cerevisiae [1]): -0.0534
Relative Growth (Saccharomyces cerevisiae [2]): -0.0883
Relative Growth (Saccharomyces cerevisiae [3]): -0.2113

Cc1ccc(C)c(Cn2c(N3CCC(C(=O)NCc4cccs4)CC3)nc3ccccc32)c1
Relative Growth (Saccharomyces cerevisiae [1]): -0.4893
Relative Growth (Saccharomyces cerevisiae [2]): -0.0285
Relative Growth (Saccharomyces cerevisiae [3]): -0.021

Cc1ccccc1OCCSc1nc2ccc(NC(=O)c3cccs3)cc2s1
Relative Growth (Saccharomyces cerevisiae [1]): -0.0038
Relative Growth (Saccharomyces cerevisiae [2]): -0.1829
Relative Growth (Saccharomyces cerevisiae [3]): -0.9335

CC1CCN(Cc2c(O)ccc3cc(-c4nc5ccccc5s4)c(=O)oc23)CC1
Relative Growth (Saccharomyces cerevisiae [1]): -0.0068
Relative Growth (Saccharomyces cerevisiae [2]): -0.0399
Relative Growth (Saccharomyces cerevisiae [3]): -0.3243

Cc1ccc2cc3c(N)c4c(C)ccc(C)c4nc3nc2c1
Relative Growth (Saccharomyces cerevisiae [1]): 0.0134
Relative Growth (Saccharomyces cerevisiae [2]): 0.1003
Relative Growth (Saccharomyces cerevisiae [3]): 0.0509

CC(C)CCNCC(O)Cn1c2ccccc2c2ccccc21.Cl (stereo not given)
Relative Growth (Saccharomyces cerevisiae [1]): -0.9987
Relative Growth (Saccharomyces cerevisiae [2]): -0.9941
Relative Growth (Saccharomyces cerevisiae [3]): -1.0262

O=C(Nc1ccc(C23CC4CC(CC(c5ccccc5)(C4)C2)C3)cc1)c1cccs1
Relative Growth (Saccharomyces cerevisiae [1]): -1.0024
Relative Growth (Saccharomyces cerevisiae [2]): -0.46
Relative Growth (Saccharomyces cerevisiae [3]): -0.1427

CCN(CC)CCCNc1ccnc2cc3ccccc3cc12
Relative Growth (Saccharomyces cerevisiae [1]): -0.9889
Relative Growth (Saccharomyces cerevisiae [2]): 0.0381
Relative Growth (Saccharomyces cerevisiae [3]): 0.1561

Cc1ccccc1OCCSc1nc2ccc(NC(=O)c3ccccc3)cc2s1
Relative Growth (Saccharomyces cerevisiae [1]): -0.3917
Relative Growth (Saccharomyces cerevisiae [2]): -0.1178
Relative Growth (Saccharomyces cerevisiae [3]): -0.0554

O=C(Nc1ccc(-c2nc3cc4ccccc4cc3[nH]2)cc1)c1cccc(Br)c1
Relative Growth (Saccharomyces cerevisiae [1]): -0.1256
Relative Growth (Saccharomyces cerevisiae [2]): 0.0231
Relative Growth (Saccharomyces cerevisiae [3]): 0.0139

Cc1ccc(C2CC(C(F)(F)F)n3nc(C(=O)N4CCN(C(c5ccccc5)c5ccccc5)CC4)cc3N2)cc1 (stereo not given)
Relative Growth (Saccharomyces cerevisiae [1]): 0.0315
Relative Growth (Saccharomyces cerevisiae [2]): -0.1134
Relative Growth (Saccharomyces cerevisiae [3]): -0.019

Cc1ccc2nc(C)cc(Nc3cccc(C(F)(F)F)c3)c2c1.Cl
Relative Growth (Saccharomyces cerevisiae [1]): -0.0219
Relative Growth (Saccharomyces cerevisiae [2]): -0.0826
Relative Growth (Saccharomyces cerevisiae [3]): -0.1571

CC(C)(C)c1ccc(C(=O)Nc2c3c(nn2-c2cccc(Cl)c2)CSC3)cc1
Relative Growth (Saccharomyces cerevisiae [1]): -0.0819
Relative Growth (Saccharomyces cerevisiae [2]): -0.3492
Relative Growth (Saccharomyces cerevisiae [3]): -0.291

COc1ccc(N2CCN(C(CNC(=O)CC(C)(C)C)c3ccc4c(c3)OCO4)CC2)cc1 (stereo not given)
Relative Growth (Saccharomyces cerevisiae [1]): 0.0032
Relative Growth (Saccharomyces cerevisiae [2]): -0.0787
Relative Growth (Saccharomyces cerevisiae [3]): -0.1806

COc1cccc(C(=O)NC(c2ccc(C)cc2)c2cc(Cl)c3cccnc3c2O)c1 (stereo not given)
Relative Growth (Saccharomyces cerevisiae [1]): -0.0292
Relative Growth (Saccharomyces cerevisiae [2]): 0.017
Relative Growth (Saccharomyces cerevisiae [3]): 0.1449

CCCCCCn1c(=N)n(CC(O)COc2cccc(C)c2)c2ccccc21.Cl (stereo not given)
Relative Growth (Saccharomyces cerevisiae [1]): -0.051
Relative Growth (Saccharomyces cerevisiae [2]): -0.1558
Relative Growth (Saccharomyces cerevisiae [3]): -0.0105

COc1ccc(-c2cc(=O)oc3c4c(ccc23)OCN(Cc2ccc(F)cc2)C4)cc1
Relative Growth (Saccharomyces cerevisiae [1]): 0.0536
Relative Growth (Saccharomyces cerevisiae [2]): 0.0043
Relative Growth (Saccharomyces cerevisiae [3]): -0.013

CCOC(=O)C1(Cc2ccccc2)CCN(Cc2cccc(OC)c2O)CC1
Relative Growth (Saccharomyces cerevisiae [1]): -0.0248
Relative Growth (Saccharomyces cerevisiae [2]): -0.0215
Relative Growth (Saccharomyces cerevisiae [3]): -0.0203

CCCOCc1cc(CN2CCN(c3cccc(Cl)c3)CC2)c(O)c2ncccc12
Relative Growth (Saccharomyces cerevisiae [1]): -0.0331
Relative Growth (Saccharomyces cerevisiae [2]): -0.0021
Relative Growth (Saccharomyces cerevisiae [3]): -0.1694

O=C(Cc1ccccc1)NC(c1ccc(Cl)cc1)c1c(O)ccc2ccccc12 (stereo not given)
Relative Growth (Saccharomyces cerevisiae [1]): 0.0198
Relative Growth (Saccharomyces cerevisiae [2]): -0.1217
Relative Growth (Saccharomyces cerevisiae [3]): 0.0388

Oc1ccc(C(=C(Cl)Cl)c2ccc(O)cc2)cc1
Relative Growth (Saccharomyces cerevisiae [1]): 0.0294
Relative Growth (Saccharomyces cerevisiae [2]): -0.227
Relative Growth (Saccharomyces cerevisiae [3]): -0.5689

CCOc1ccc2c(c1)CN(Cc1ccc(Cl)cc1)CO2
Relative Growth (Saccharomyces cerevisiae [1]): -0.0457
Relative Growth (Saccharomyces cerevisiae [2]): -0.0363
Relative Growth (Saccharomyces cerevisiae [3]): -0.0581

CC(C)(C)c1ccc2c(c1)CN(Cc1ccc(Cl)cc1)CO2
Relative Growth (Saccharomyces cerevisiae [1]): -0.9993
Relative Growth (Saccharomyces cerevisiae [2]): -0.1149
Relative Growth (Saccharomyces cerevisiae [3]): -0.1101

CCOc1ccc(Nc2ccnc3cc(Cl)ccc23)cc1
Relative Growth (Saccharomyces cerevisiae [1]): 0.0185
Relative Growth (Saccharomyces cerevisiae [2]): 0.0274
Relative Growth (Saccharomyces cerevisiae [3]): 0.0427

Cc1cc(=O)oc2c1ccc1oc(C(=O)c3ccccc3)c(C)c12
Relative Growth (Saccharomyces cerevisiae [1]): 0.0119
Relative Growth (Saccharomyces cerevisiae [2]): -0.1287
Relative Growth (Saccharomyces cerevisiae [3]): -0.3574

COc1ccc(CN2CCN(Cc3ccccc3)CC2)c(O)c1
Relative Growth (Saccharomyces cerevisiae [1]): -0.0119
Relative Growth (Saccharomyces cerevisiae [2]): 0.0478
Relative Growth (Saccharomyces cerevisiae [3]): 0.0718

COc1ccc2c(c1OC)C(=O)N1c3ccccc3N=C(c3ccc(C)cc3)CC21 (stereo not given)
Relative Growth (Saccharomyces cerevisiae [1]): -0.0173
Relative Growth (Saccharomyces cerevisiae [2]): -1.0612
Relative Growth (Saccharomyces cerevisiae [3]): -1.0982

CCCCCCc1cc(O)c2c3c(c(=O)oc2c1)CCC(C)C3 (stereo not given)
Relative Growth (Saccharomyces cerevisiae [1]): -0.0517
Relative Growth (Saccharomyces cerevisiae [2]): -0.0738
Relative Growth (Saccharomyces cerevisiae [3]): -0.0677

CCOc1ccc(Nc2c3ccccc3nc3ccccc23)cc1.Cl
Relative Growth (Saccharomyces cerevisiae [1]): -0.0047
Relative Growth (Saccharomyces cerevisiae [2]): 0.0198
Relative Growth (Saccharomyces cerevisiae [3]): 0.0301

OC1=C2C(=Nc3ccccc3SC2c2ccc(Br)cc2)c2ccccc21 (stereo not given)
Relative Growth (Saccharomyces cerevisiae [1]): -0.0041
Relative Growth (Saccharomyces cerevisiae [2]): 0.0198
Relative Growth (Saccharomyces cerevisiae [3]): 0.1502

COc1ccc(C)c2sc(N(Cc3cccnc3)C(=O)c3ccc(C#N)cc3)nc12
Relative Growth (Saccharomyces cerevisiae [1]): -0.0087
Relative Growth (Saccharomyces cerevisiae [2]): -0.0341
Relative Growth (Saccharomyces cerevisiae [3]): 0.0255

CCCCCCc1cc2cc(-c3nc4ccccc4[nH]3)c(=Nc3ccccc3C)oc2cc1O
Relative Growth (Saccharomyces cerevisiae [1]): -0.0113
Relative Growth (Saccharomyces cerevisiae [2]): 0.1107
Relative Growth (Saccharomyces cerevisiae [3]): -0.1213

COc1cc(OC)cc(N2C(=O)N(Cc3ccc(C(C)(C)C)cc3)c3ccccc3S2(=O)=O)c1
Relative Growth (Saccharomyces cerevisiae [1]): -0.7249
Relative Growth (Saccharomyces cerevisiae [2]): 0.0008
Relative Growth (Saccharomyces cerevisiae [3]): -0.0128

COc1ccccc1N1C(=N)SC(=Cc2ccc(OCc3ccccc3F)cc2)C1=O
Relative Growth (Saccharomyces cerevisiae [1]): 0.0323
Relative Growth (Saccharomyces cerevisiae [2]): 0.0037
Relative Growth (Saccharomyces cerevisiae [3]): -0.0753

CCOC(=O)C1=CN(C)C=C(C(=O)OCC)C1c1cc(Br)c(OCC)c(OC)c1
Relative Growth (Saccharomyces cerevisiae [1]): -0.1817
Relative Growth (Saccharomyces cerevisiae [2]): 0.2106
Relative Growth (Saccharomyces cerevisiae [3]): -0.4757

CCN1CCN(c2c(C(=O)c3ccccc3)cnc3cc(OC)c(OC)cc23)CC1
Relative Growth (Saccharomyces cerevisiae [1]): -0.0459
Relative Growth (Saccharomyces cerevisiae [2]): 0.0169
Relative Growth (Saccharomyces cerevisiae [3]): -0.2869

Cc1ccc(S(=O)(=O)c2c(COC(=O)c3cccc(C)c3)c(-c3ccccc3)nn2C)cc1
Relative Growth (Saccharomyces cerevisiae [1]): 0.0124
Relative Growth (Saccharomyces cerevisiae [2]): -0.0588
Relative Growth (Saccharomyces cerevisiae [3]): -0.0042

CCOC(=O)c1c[nH]c2c(CC)cccc2c1=O
Relative Growth (Saccharomyces cerevisiae [1]): -0.0665
Relative Growth (Saccharomyces cerevisiae [2]): -0.1466
Relative Growth (Saccharomyces cerevisiae [3]): -0.0989
